From patent publication US12281080B2, “Quinoline-based compounds and methods of inhibiting CDK8/19” (University of South Carolina, priority 2018, dated 2025)

Columns and labels:
[1] = biological target: CSNK1A1 (Homo sapiens (Human), UniProt P48729); test: KINOMEscan scanMAX; assay type: binding; details: 2000 nM; read-out: Percent Control
[2] = biological target: NDR1 (STK38) (Homo sapiens (Human), UniProt Q15208); test: KINOMEscan scanMAX; assay type: binding; details: 2000 nM; read-out: Percent Control
[3] = biological target: AMPK-alpha2 (PRKAA2) (Homo sapiens (Human), UniProt P54646); test: KINOMEscan scanMAX; assay type: binding; details: 2000 nM; read-out: Percent Control
[4] = biological target: MAP4K2 (Homo sapiens (Human), UniProt Q12851); test: DiscoverX Kd assay
[5] = biological target: ABL1(T315I)-nonphosphorylated (Homo sapiens (Human), UniProt P00519, T315I); test: KINOMEscan scanMAX; assay type: binding; details: 2000 nM; read-out: Percent Control
[6] = biological target: ACVR2A (Homo sapiens (Human), UniProt P27037); test: KINOMEscan scanMAX; assay type: binding; details: 2000 nM; read-out: Percent Control
[7] = biological target: TRKC (NTRK3) (Homo sapiens (Human), UniProt Q16288); test: KINOMEscan scanMAX; assay type: binding; details: 2000 nM; read-out: Percent Control
[8] = biological target: ABL1(Q252H)-nonphosphorylated (Homo sapiens (Human), UniProt P00519, Q252H); test: KINOMEscan scanMAX; assay type: binding; details: 2000 nM; read-out: Percent Control
[9] = biological target: TLK1 (Homo sapiens (Human), UniProt Q9UKI8); test: KINOMEscan scanMAX; assay type: binding; details: 2000 nM; read-out: Percent Control
[10] = biological target: SRPK3 (Homo sapiens (Human), UniProt Q9UPE1); test: KINOMEscan scanMAX; assay type: binding; details: 2000 nM; read-out: Percent Control
[11] = biological target: PRKCH (Homo sapiens (Human), UniProt P24723); test: KINOMEscan scanMAX; assay type: binding; details: 2000 nM; read-out: Percent Control
[12] = biological target: LYN (Homo sapiens (Human), UniProt P07948); test: KINOMEscan scanMAX; assay type: binding; details: 2000 nM; read-out: Percent Control
[13] = biological target: TNNI3K (Homo sapiens (Human), UniProt Q59H18); test: KINOMEscan scanMAX; assay type: binding; details: 2000 nM; read-out: Percent Control
[14] = biological target: RET(V804M) (Homo sapiens (Human), UniProt P07949, V804M); test: KINOMEscan scanMAX; assay type: binding; details: 2000 nM; read-out: Percent Control
[15] = biological target: MAP4K4 (Homo sapiens (Human), UniProt O95819); test: KINOMEscan scanMAX; assay type: binding; details: 2000 nM; read-out: Percent Control
[16] = biological target: EPHB2 (Homo sapiens (Human), UniProt P29323); test: KINOMEscan scanMAX; assay type: binding; details: 2000 nM; read-out: Percent Control
[17] = biological target: PDGFRB (Homo sapiens (Human), UniProt P09619); test: KINOMEscan scanMAX; assay type: binding; details: 2000 nM; read-out: Percent Control
[18] = biological target: KIT(V559D, V654A) (Homo sapiens (Human), UniProt P10721, V559D/V654A); test: KINOMEscan scanMAX; assay type: binding; details: 2000 nM; read-out: Percent Control
[19] = biological target: KIT(D816H) (Homo sapiens (Human), UniProt P10721, D816H); test: KINOMEscan scanMAX; assay type: binding; details: 2000 nM; read-out: Percent Control
[20] = biological target: CLK3 (Homo sapiens (Human), UniProt P49761); test: KINOMEscan scanMAX; assay type: binding; details: 2000 nM; read-out: Percent Control
[21] = biological target: ABL1-nonphosphorylated (Homo sapiens (Human), UniProt P00519); test: KINOMEscan scanMAX; assay type: binding; details: 2000 nM; read-out: Percent Control
[22] = biological target: BIKE (BMP2K) (Homo sapiens (Human), UniProt Q9NSY1); test: KINOMEscan scanMAX; assay type: binding; details: 2000 nM; read-out: Percent Control
[23] = Mouse pharmacokinetics, oral, serum; assay type: in vivo, mice
Procedure: To measure pharmacokinetics (PK), Senexin C dissolved in 5% Dextrose was administered orally (p.o.) to female FVB mice at 30 mg/kg. Blood samples were collected at different time points (5 mice per time point) and Senexin C concentration in the serum was measured by LC/MS/MS.

[24] = biological target: MRCKA (CDC42BPA) (Homo sapiens (Human), UniProt Q5VT25); test: KINOMEscan scanMAX; assay type: binding; details: 2000 nM; read-out: Percent Control
[25] = biological target: JAK3(JH1domain-catalytic) (Homo sapiens (Human), UniProt P52333); test: KINOMEscan scanMAX; assay type: binding; details: 2000 nM; read-out: Percent Control
[26] = biological target: FLT3(K663Q) (Homo sapiens (Human), UniProt P36888, K663Q); test: KINOMEscan scanMAX; assay type: binding; details: 2000 nM; read-out: Percent Control
[27] = biological target: MST2 (STK3) (Homo sapiens (Human), UniProt Q13188); test: KINOMEscan scanMAX; assay type: binding; details: 2000 nM; read-out: Percent Control
[28] = biological target: EPHA3 (Homo sapiens (Human), UniProt P29320); test: KINOMEscan scanMAX; assay type: binding; details: 2000 nM; read-out: Percent Control
[29] = biological target: ERK8 (MAPK15) (Homo sapiens (Human), UniProt Q8TD08); test: KINOMEscan scanMAX; assay type: binding; details: 2000 nM; read-out: Percent Control
[30] = biological target: TSSK3 (Homo sapiens (Human), UniProt Q96PN8); test: KINOMEscan scanMAX; assay type: binding; details: 2000 nM; read-out: Percent Control
[31] = test system: MV4-11 cells; test: MV4-11-Luc proliferation assay (BLI); assay type: cell-based; details: Homo sapiens, MV4-11, 168 h; 7 days
Procedure: The anti-leukemic activity was evaluated with a MV4-11 assay. The population of MV4-11 cells, which depend on CDK8/19 for their proliferation, was made to express Luciferase and ZsGreen by lenvtiral infection with pHIV-Luc-ZsGreen, to enable leukemia growth analysis by bioluminescence imaging (BLI). The initial Luciferase-ZsGreen transduced cell population was sorted for ZsGreen positivity with fluorescence activated cell sorting. The MV4-11 assay was performed in 96-well plates by treating the MV4-11-Luc cells with testing compounds at different concentrations for 7 days, followed by BLI to quantify the effects of test articles on cell proliferation.

[32] = biological target: PLK3 (Homo sapiens (Human), UniProt Q9H4B4); test: KINOMEscan scanMAX; assay type: binding; details: 2000 nM; read-out: Percent Control
[33] = biological target: PIK3CA(E542K) (Homo sapiens (Human), UniProt P42336, E542K); test: KINOMEscan scanMAX; assay type: binding; details: 2000 nM; read-out: Percent Control
[34] = biological target: PCTK3 (CDK18) (Homo sapiens (Human), UniProt Q07002); test: KINOMEscan scanMAX; assay type: binding; details: 2000 nM; read-out: Percent Control

Chain of PIK3CA(E542K) (P42336 whole entry E542K): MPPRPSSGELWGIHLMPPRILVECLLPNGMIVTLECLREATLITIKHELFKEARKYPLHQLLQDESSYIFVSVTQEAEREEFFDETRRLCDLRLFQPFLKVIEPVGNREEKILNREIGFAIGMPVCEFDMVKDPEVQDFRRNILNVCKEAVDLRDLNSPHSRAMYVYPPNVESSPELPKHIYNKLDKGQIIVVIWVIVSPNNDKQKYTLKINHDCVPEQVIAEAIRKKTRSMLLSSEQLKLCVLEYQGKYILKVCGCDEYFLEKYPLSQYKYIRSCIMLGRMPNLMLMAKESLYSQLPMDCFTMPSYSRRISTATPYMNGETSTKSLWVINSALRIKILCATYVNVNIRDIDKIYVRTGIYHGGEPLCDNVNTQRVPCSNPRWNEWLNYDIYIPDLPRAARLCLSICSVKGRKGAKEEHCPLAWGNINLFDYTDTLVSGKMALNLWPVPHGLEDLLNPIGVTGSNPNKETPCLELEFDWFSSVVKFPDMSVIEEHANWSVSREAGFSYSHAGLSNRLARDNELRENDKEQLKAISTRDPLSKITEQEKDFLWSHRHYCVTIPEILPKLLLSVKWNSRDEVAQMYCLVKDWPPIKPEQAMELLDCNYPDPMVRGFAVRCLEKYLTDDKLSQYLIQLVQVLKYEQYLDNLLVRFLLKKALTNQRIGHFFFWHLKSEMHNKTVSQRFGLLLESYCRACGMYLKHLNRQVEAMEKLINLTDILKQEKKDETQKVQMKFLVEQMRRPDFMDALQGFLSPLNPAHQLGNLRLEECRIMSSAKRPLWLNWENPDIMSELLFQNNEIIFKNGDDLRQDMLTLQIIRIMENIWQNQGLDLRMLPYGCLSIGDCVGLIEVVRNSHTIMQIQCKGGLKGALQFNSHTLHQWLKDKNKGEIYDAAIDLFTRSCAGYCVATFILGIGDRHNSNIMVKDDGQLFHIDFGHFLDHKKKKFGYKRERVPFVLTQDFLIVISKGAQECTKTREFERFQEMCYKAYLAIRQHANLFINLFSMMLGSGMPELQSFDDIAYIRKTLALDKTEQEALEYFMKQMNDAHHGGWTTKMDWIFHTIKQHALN
Chain of TLK1 (Q9UKI8 whole entry): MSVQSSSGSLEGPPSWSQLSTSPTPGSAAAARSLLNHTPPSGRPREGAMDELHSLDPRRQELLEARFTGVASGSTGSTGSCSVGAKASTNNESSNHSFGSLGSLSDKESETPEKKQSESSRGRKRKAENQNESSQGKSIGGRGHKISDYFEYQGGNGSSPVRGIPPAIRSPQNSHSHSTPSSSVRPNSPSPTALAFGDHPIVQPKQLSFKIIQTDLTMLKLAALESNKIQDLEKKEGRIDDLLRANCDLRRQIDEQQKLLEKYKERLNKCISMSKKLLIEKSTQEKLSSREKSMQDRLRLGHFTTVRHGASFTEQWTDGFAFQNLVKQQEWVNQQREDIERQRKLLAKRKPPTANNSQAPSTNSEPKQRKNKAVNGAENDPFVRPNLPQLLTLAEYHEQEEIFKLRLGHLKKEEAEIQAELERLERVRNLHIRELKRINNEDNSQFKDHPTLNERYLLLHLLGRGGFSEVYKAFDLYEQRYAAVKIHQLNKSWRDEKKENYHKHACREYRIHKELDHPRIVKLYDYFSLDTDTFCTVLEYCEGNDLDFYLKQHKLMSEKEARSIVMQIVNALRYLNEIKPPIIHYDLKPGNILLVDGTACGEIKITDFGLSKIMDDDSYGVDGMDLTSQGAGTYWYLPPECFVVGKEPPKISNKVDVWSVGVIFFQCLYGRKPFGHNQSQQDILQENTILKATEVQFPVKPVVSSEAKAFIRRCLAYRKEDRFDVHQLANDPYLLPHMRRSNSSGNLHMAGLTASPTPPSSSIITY
Chain of ERK8 (MAPK15) (Q8TD08 whole entry): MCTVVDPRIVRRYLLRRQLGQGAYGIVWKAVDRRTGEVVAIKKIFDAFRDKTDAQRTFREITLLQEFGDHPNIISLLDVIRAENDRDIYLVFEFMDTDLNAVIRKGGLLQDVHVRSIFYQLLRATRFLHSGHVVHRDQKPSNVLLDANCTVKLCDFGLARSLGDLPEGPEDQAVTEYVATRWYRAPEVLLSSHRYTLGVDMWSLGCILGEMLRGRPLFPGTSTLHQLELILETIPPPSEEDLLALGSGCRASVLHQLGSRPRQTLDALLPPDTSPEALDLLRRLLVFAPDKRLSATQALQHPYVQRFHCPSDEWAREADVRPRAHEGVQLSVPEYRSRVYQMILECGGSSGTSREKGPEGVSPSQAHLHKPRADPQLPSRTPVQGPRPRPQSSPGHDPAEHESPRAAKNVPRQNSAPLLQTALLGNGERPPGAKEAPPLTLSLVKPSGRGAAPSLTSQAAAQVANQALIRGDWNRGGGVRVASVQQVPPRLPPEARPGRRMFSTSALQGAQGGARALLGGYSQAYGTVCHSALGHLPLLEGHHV
Chain of PRKCH (P24723 whole entry): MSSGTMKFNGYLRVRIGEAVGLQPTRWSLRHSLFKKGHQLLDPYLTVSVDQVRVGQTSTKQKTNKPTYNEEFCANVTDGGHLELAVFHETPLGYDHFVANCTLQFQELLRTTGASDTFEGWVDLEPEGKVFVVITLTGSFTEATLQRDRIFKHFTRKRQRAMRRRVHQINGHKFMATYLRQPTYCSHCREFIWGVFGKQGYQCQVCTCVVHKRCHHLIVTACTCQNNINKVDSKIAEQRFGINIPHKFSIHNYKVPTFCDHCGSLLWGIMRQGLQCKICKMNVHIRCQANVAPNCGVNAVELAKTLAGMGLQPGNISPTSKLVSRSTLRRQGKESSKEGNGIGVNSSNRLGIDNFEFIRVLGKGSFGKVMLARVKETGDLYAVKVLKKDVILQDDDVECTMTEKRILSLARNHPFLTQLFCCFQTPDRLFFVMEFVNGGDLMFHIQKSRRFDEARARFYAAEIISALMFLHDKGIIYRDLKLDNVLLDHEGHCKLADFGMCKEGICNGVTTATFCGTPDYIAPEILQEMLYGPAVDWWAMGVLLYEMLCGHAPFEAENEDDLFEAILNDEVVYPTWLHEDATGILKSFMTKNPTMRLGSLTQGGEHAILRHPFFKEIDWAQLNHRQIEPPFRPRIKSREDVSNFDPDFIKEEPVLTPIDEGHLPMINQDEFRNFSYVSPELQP
Chain of LYN (P07948 whole entry): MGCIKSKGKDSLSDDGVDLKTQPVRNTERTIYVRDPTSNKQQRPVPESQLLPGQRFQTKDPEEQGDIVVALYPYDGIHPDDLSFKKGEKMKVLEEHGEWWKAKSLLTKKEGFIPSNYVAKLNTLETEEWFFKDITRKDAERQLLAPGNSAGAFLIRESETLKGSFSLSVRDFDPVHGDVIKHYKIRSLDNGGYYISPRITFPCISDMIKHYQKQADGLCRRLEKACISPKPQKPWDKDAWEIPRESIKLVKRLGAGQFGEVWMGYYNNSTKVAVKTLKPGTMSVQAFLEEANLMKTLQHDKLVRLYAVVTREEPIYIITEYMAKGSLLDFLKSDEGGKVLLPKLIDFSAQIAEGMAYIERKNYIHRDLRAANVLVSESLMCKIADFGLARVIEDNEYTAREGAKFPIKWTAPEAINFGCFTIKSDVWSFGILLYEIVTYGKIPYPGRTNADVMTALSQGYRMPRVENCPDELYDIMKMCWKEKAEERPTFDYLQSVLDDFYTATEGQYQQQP
Chain of NDR1 (STK38) (Q15208 whole entry): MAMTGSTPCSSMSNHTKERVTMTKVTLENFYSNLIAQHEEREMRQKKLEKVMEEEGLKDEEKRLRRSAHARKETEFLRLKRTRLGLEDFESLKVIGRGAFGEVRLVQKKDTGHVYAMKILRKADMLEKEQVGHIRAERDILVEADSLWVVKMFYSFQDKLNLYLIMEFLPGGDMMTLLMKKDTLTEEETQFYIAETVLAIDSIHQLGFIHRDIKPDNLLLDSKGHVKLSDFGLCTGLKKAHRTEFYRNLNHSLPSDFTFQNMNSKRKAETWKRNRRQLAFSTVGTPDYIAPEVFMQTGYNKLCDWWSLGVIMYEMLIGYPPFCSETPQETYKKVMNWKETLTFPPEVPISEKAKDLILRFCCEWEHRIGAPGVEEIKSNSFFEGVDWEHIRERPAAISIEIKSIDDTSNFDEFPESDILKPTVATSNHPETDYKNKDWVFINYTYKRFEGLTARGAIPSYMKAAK
Chain of TNNI3K (Q59H18 whole entry): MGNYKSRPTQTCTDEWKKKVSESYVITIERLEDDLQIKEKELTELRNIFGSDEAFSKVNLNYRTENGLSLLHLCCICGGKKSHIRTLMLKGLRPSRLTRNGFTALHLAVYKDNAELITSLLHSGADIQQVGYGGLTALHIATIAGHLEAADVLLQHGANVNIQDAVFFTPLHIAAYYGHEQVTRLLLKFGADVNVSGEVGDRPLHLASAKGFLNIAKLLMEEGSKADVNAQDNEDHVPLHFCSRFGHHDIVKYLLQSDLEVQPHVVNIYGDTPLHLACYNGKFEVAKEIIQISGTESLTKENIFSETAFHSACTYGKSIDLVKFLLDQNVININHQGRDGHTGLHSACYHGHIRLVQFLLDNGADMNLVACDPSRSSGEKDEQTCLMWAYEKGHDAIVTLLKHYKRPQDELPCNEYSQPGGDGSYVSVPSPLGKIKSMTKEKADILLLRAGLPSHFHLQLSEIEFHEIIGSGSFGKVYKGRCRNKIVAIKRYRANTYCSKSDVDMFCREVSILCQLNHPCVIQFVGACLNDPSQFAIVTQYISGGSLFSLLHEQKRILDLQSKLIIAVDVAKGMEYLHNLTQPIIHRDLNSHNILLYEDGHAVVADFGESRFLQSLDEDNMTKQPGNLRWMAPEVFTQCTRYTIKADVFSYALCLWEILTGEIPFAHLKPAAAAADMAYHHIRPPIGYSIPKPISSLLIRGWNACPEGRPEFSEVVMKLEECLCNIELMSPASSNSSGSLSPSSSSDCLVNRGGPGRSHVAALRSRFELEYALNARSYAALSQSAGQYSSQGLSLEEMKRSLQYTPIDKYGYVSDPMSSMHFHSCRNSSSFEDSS

In the case of `CN1CCN(C(=O)c2ccc3cc(CCNc4ccnc5ccc(C#N)cc45)ccc3c2)CC1` [compound 6148, 4-((2-(6-(4-methylpiperazine-1-carbonyl)naphthalen-2-yl)ethyl)amino)quinoline-6-carbonitrile], the remaining binding at 2 µM [1] is reported as 76%, the remaining binding at 2 µM [2] is reported as 79% and the remaining binding at 2 µM [3] is reported as 42%. The Kd [4] was 940 nM, the remaining binding at 2 µM [5] was 90% and the remaining binding at 2 µM [6] was 89%. The remaining binding at 2 µM [7] was 69%, the remaining binding at 2 µM [8] was 73% and the remaining binding at 2 µM [9] was 94%. The remaining binding at 2 µM [10] was 96%, the remaining binding at 2 µM [11] was 91% and the remaining binding at 2 µM [12] was 88%. The remaining binding at 2 µM [13] was 100%, the remaining binding at 2 µM [14] was 91% and the remaining binding at 2 µM [15] was 93%. For the same compound, the remaining binding at 2 µM [16] was 86%, the remaining binding at 2 µM [17] was 94% and the remaining binding at 2 µM [18] was 89%. The remaining binding at 2 µM [19] was 57%, the remaining binding at 2 µM [20] was 65% and the remaining binding at 2 µM [21] was 71%. The remaining binding at 2 µM [22] was 97%, the “Increase of half-time, oral vs i.p.” value ([23]; female, FVB, mouse, in vivo) was 4-5 times and the half-time ([23]; p.o. 30 mg/kg, female FVB mice) was 3.8 h. The remaining binding at 2 µM [24] was 98%, the remaining binding at 2 µM [25] was 65% and the remaining binding at 2 µM [26] was 87%. The remaining binding at 2 µM [27] was 100%, the remaining binding at 2 µM [28] was 100% and the remaining binding at 2 µM [29] was 76%. For the same compound, the remaining binding at 2 µM [30] was 81%, the IC50 [31] was 117 nM and the remaining binding at 2 µM [32] was 80%. It also gave a remaining binding at 2 µM [33] of 55% and a remaining binding at 2 µM [34] of 97%.
